Experimental data from patent US20250163038A1, “CBL-B MODULATORS AND USES THEREOF” (Nimbus Clio, Inc., priority 2021, published 2025).
pEC50, pIC50: −log10 of the molar value.

Key:
[1] = molecular target: Recombinant human Cbl-b (aa 36-427) (Homo sapiens, UniProt Q13191); experiment: Cbl-b Biochemical Assay (TR-FRET); settings: read-out: TR-FRET hCbl-b IC50
[2] = molecular target: T1, Recombinant human c-Cbl (aa 47-435) (Homo sapiens, UniProt P22681); experiment: c-Cbl Biochemical Assay (TR-FRET); settings: hc-Cbl Biochemical Assay (TR-FRET); read-out: TR-FRET hcCbl IC50
T1 sequence (P22681 47-435): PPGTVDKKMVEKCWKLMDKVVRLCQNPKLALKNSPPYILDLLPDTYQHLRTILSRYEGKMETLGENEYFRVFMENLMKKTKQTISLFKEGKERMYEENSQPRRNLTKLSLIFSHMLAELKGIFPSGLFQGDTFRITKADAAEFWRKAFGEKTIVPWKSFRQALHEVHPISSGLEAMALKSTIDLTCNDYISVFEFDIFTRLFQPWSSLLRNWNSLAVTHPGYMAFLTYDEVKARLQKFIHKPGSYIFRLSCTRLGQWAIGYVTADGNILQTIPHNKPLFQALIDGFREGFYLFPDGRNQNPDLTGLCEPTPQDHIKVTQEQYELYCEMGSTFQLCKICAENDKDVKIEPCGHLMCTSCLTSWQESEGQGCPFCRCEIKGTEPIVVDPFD

[3] = tested on: Jurkat (clone E6-1) cells with NFAT luciferase reporter; experiment: Jurkat reporter assay (NFAT Luciferase); type: cell-based; settings: Homo sapiens; Jurkat NFAT luciferase reporter cells, anti-CD3 stimulation, 6 hr; read-out: Jurkat NFAT EC50

Sequence of Recombinant human Cbl-b (aa 36-427) (Q13191 36-427): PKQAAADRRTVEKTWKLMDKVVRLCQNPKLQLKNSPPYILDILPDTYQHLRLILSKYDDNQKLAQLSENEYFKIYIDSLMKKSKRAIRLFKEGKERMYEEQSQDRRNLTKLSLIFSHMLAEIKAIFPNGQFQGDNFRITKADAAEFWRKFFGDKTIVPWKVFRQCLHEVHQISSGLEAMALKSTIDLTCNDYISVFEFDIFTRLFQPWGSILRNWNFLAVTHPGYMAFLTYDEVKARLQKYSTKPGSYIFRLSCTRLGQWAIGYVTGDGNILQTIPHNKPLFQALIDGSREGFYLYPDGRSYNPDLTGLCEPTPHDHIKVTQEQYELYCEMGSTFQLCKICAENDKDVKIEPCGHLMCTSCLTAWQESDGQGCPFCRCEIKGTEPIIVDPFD

pIC50 [1] | pIC50 [2] | pEC50 [3] | SMILES
> 6.70 | > 6.70 | > 6.70 | Cn1cnnc1-c1cc(F)ccc1-c1cccc(-c2nc3cc(CNCC4(O)CCC4)cc(F)c3o2)c1 [IZ-1, 1-((((7-Fluoro-2-(4′-fluoro-2′-(4-methyl-4H-1,2,4-triazol-3-yl)-[1,1′-biphenyl]-3-yl)benzo[d]oxazol-5-yl)methyl)amino)methyl)cyclobutan-1-ol]
> 6.70 | 5.00 to 6.00 | 5.00 to 6.00 | Cn1cnnc1-c1cc(F)ccc1-c1cccc(-c2nc3cc(CN4CCCC[C@H]4CO)cc(C(F)(F)F)c3o2)c1 [JB-2, (S)-(1-((2-(4′-Fluoro-2′-(4-methyl-4H-1,2,4-triazol-3-yl)-[1,1′-biphenyl]-3-yl)-7-(trifluoromethyl)benzo[d]oxazol-5-yl)methyl)piperidin-2-yl)methanol]
6.00 to 6.70 | 5.00 to 6.00 | 5.00 to 6.00 | COCCNCc1cc(C)c2oc(-c3cccc(-c4ccc(F)cc4-c4nncn4C)c3)nc2c1F [JC-1, N-((4-Fluoro-2-(4′-fluoro-2′-(4-methyl-4H-1,2,4-triazol-3-yl)-[1,1′-biphenyl]-3-yl)-7-methylbenzo[d]oxazol-5-yl)methyl)-2-methoxyethan-1-amine]
> 6.70 | > 6.70 | > 6.70 | Cn1cnnc1-c1cc(F)ccc1-c1cccc(-c2nc3cc(CNCC(C)(C)O)c(F)c(F)c3o2)c1 [JD-1, 1-(((6,7-Difluoro-2-(4′-fluoro-2′-(4-methyl-4H-1,2,4-triazol-3-yl)-[1,1′-biphenyl]-3-yl)benzo[d]oxazol-5-yl)methyl)amino)-2-methylpropan-2-ol]
> 6.70 | 6.00 to 6.70 | > 6.70 | Cn1cnnc1-c1cc(F)ccc1-c1cccc(-c2nc3cc(CNCC4COC4)c(F)c(F)c3o2)c1 [JE-1, 1-(6,7-Difluoro-2-(4′-fluoro-2′-(4-methyl-4H-1,2,4-triazol-3-yl)-[1,1′-biphenyl]-3-yl)benzo[d]oxazol-5-yl)-N-(oxetan-3-ylmethyl)methanamine]
> 6.70 | 6.00 to 6.70 | > 6.70 | Cn1cnnc1-c1cc(F)ccc1-c1cccc(-c2nc3cc(CNC4CCC4)c(F)c(F)c3o2)c1 [JF-1, N-((6,7-Difluoro-2-(4′-fluoro-2′-(4-methyl-4H-1,2,4-triazol-3-yl)-[1,1′-biphenyl]-3-yl)benzo[d]oxazol-5-yl)methyl)cyclobutanamine]
> 6.70 | > 6.70 | > 6.70 | Cn1cnnc1-c1cc(F)ccc1-c1cccc(-c2nc3cc(CNCC4(O)CCC4)cc(C4CC4)c3o2)c1 [JG-1, 1-((((7-Cyclopropyl-2-(4′-fluoro-2′-(4-methyl-4H-1,2,4-triazol-3-yl)-[1,1′-biphenyl]-3-yl)benzo[d]oxazol-5-yl)methyl)amino)methyl)cyclobutan-1-ol]
> 6.70 | > 6.70 | > 6.70 | COCCNCc1cc(C2CC2)c2oc(-c3cccc(-c4ccc(F)cc4-c4nncn4C)c3)nc2c1 [JH-1, N-((7-Cyclopropyl-2-(4′-fluoro-2′-(4-methyl-4H-1,2,4-triazol-3-yl)-[1,1′-biphenyl]-3-yl)benzo[d]oxazol-5-yl)methyl)-2-methoxyethan-1-amine]
> 6.70 | > 6.70 | > 6.70 | Cn1cnnc1-c1cc(F)ccc1-c1cccc(-c2nc3cc(CN[C@@H]4CCC[C@@]4(O)C(F)(F)F)cc(C(F)(F)F)c3o2)c1 [JI-3, (1S,2R)-2-(((2-(4′-Fluoro-2′-(4-methyl-4H-1,2,4-triazol-3-yl)-[1,1′-biphenyl]-3-yl)-7-(trifluoromethyl)benzo[d]oxazol-5-yl)methyl)amino)-1-(trifluoromethyl)cyclopentan-1-ol]
> 6.70 | > 6.70 | 6.00 to 6.70 | CN(Cc1cc2nc(-c3cccc(-c4ccc(F)cc4-c4nncn4C)c3)oc2c(F)c1F)[C@@H]1CCC[C@@H]1O [JJ-3, (1S,2R)-2-(((6,7-Difluoro-2-(4′-fluoro-2′-(4-methyl-4H-1,2,4-triazol-3-yl)-[1,1′-biphenyl]-3-yl)benzo[d]oxazol-5-yl)methyl)(methyl)amino)cyclopentan-1-ol]
> 6.70 | 6.00 to 6.70 | 5.00 to 6.00 | COCCNC(COC)c1cc(C)c2oc(-c3cccc(-c4ccc(F)cc4-c4nncn4C)c3)nc2c1 (stereo not drawn) [JK-7, 1-(2-(4′-Fluoro-2′-(4-methyl-4H-1,2,4-triazol-3-yl)-[1,1′-biphenyl]-3-yl)-7-methylbenzo[d]oxazol-5-yl)-2-methoxy-N-(2-methoxyethyl)ethan-1-amine]
> 6.70 | > 6.70 | > 6.70 | Cn1cnnc1-c1cc(F)ccc1-c1cc(-c2nc3cc(CNCC(C)(C)O)cc(C(F)(F)F)c3o2)cc(C2CC2)c1 [JL-1, 1-(((2-(5-Cyclopropyl-4′-fluoro-2′-(4-methyl-4H-1,2,4-triazol-3-yl)-[1,1′-biphenyl]-3-yl)-7-(trifluoromethyl)benzo[d]oxazol-5-yl)methyl)amino)-2-methylpropan-2-ol]
> 6.70 | > 6.70 | > 6.70 | Cn1cnnc1-c1cc(F)ccc1-c1cc(-c2nc3cc(CN[C@@H]4CCC[C@@H]4O)cc(F)c3o2)cc(C2CC2)c1 [JM-4, (1S,2R)-2-(((2-(5-Cyclopropyl-4′-fluoro-2′-(4-methyl-4H-1,2,4-triazol-3-yl)-[1,1′-biphenyl]-3-yl)-7-fluorobenzo[d]oxazol-5-yl)methyl)amino)cyclopentan-1-ol]
> 6.70 | > 6.70 | > 6.70 | Cn1cnnc1-c1cc(F)ccc1-c1cccc(-c2nc3cc(CNCC(C)(C)O)cc(F)c3o2)c1 [JN-1, 1-(((7-Fluoro-2-(4′-fluoro-2′-(4-methyl-4H-1,2,4-triazol-3-yl)-[1,1′-biphenyl]-3-yl)benzo[d]oxazol-5-yl)methyl)amino)-2-methylpropan-2-ol]
> 6.70 | > 6.70 | > 6.70 | Cn1cnnc1-c1cc(F)ccc1-c1cc(-c2nc3cc(CNCC4CCC4)cc(F)c3o2)cc(C2CC2)c1 [JO-1, 1-Cyclobutyl-N-((2-(5-cyclopropyl-4′-fluoro-2′-(4-methyl-4H-1,2,4-triazol-3-yl)-[1,1′-biphenyl]-3-yl)-7-fluorobenzo[d]oxazol-5-yl)methyl)methanamine]
> 6.70 | > 6.70 | > 6.70 | C[C@H](O)CNCc1cc(F)c2oc(-c3cccc(-c4ccc(F)cc4-c4nncn4C)c3)nc2c1 [JP-1, (S)-1-(((7-Fluoro-2-(4′-fluoro-2′-(4-methyl-4H-1,2,4-triazol-3-yl)-[1,1′-biphenyl]-3-yl)benzo[d]oxazol-5-yl)methyl)amino)propan-2-ol]
> 6.70 | > 6.70 | > 6.70 | Cn1cnnc1-c1cc(F)ccc1-c1cc(-c2nc3cc(CNCC(C)(C)O)cc(F)c3o2)cc(C2CC2)c1 [JQ-1, 1-(((2-(5-Cyclopropyl-4′-fluoro-2′-(4-methyl-4H-1,2,4-triazol-3-yl)-[1,1′-biphenyl]-3-yl)-7-fluorobenzo[d]oxazol-5-yl)methyl)amino)-2-methylpropan-2-ol]
> 6.70 | > 6.70 | > 6.70 | Cn1cnnc1-c1cc(F)ccc1-c1cc(-c2nc3cc(CNCC4(O)CCC4)cc(C(F)(F)F)c3o2)cc(C2CC2)c1 [JS-1, 1-((((2-(5-Cyclopropyl-4′-fluoro-2′-(4-methyl-4H-1,2,4-triazol-3-yl)-[1,1′-biphenyl]-3-yl)-7-(trifluoromethyl)benzo[d]oxazol-5-yl)methyl)amino)methyl)cyclobutan-1-ol]
> 6.70 | > 6.70 | > 6.70 | COCCNCc1cc(C(F)(F)F)c2oc(-c3cc(-c4ccc(F)cc4-c4nncn4C)cc(C4CC4)c3)nc2c1 [JT-1, N-((2-(5-Cyclopropyl-4′-fluoro-2′-(4-methyl-4H-1,2,4-triazol-3-yl)-[1,1′-biphenyl]-3-yl)-7-(trifluoromethyl)benzo[d]oxazol-5-yl)methyl)-2-methoxyethan-1-amine]
> 6.70 | > 6.70 | > 6.70 | Cn1cnnc1-c1cc(F)ccc1-c1cc(-c2nc3cc(CNCC4CCC4)cc(C(F)(F)F)c3o2)cc(C2CC2)c1 [JU-1, 1-Cyclobutyl-N-((2-(5-cyclopropyl-4′-fluoro-2′-(4-methyl-4H-1,2,4-triazol-3-yl)-[1,1′-biphenyl]-3-yl)-7-(trifluoromethyl)benzo[d]oxazol-5-yl)methyl)methanamine]

SMILES | pIC50 [1] | pIC50 [2] | pEC50 [3]
CO[C@@H]1CCCN(Cc2cc(C(F)(F)F)c3oc(-c4cccc(-c5ccc(F)cc5-c5nncn5C)c4)nc3c2)C1 [JR-2, (R)-2-(4′-Fluoro-2′-(4-methyl-4H-1,2,4-triazol-3-yl)-[1,1′-biphenyl]-3-yl)-5-((3-methoxypiperidin-1-yl)methyl)-7-(trifluoromethyl)benzo[d]oxazole] | > 6.70 | 6.00 to 6.70 | 6.00 to 6.70
